Data on twelve compounds can be found in patent US11634447B2 (priority 2012, dated 2023).

The experiment has as its system bacterial strain LF82 binding to the glycoprotein BSA-(Mannose)3. As to the kind of experiment: Bacterial Binding Assay (BBA). As to conditions: read-out: Bacterial Binding Assay IC50, LF82/Luciferase strain binding to BSA-(Man)3 coated plates, luminescence. Type of experiment: cell-based, Escherichia coli. The method, boiled down: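 Inhibition of LF82/luciferase E. coli adhesion is read as luminescence after washing off unbound cells. Compound and bacteria (10^7 per well) are co-incubated 40-75 min at room temperature on wells coated with 0.5-2 μg/mL BSA-(Man)3, with BSA-only wells as background; IC50 values derived.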
For `OC[C@H]1O[C@H](C#Cc2ccc(C#C[C@H]3O[C@H](CO)[C@@H](O)[C@H](O)C3O)cc2)[C@@H](O)[C@@H](O)[C@@H]1O` (stereo in doubt) [Compound 69, (2R,3 S,4R,5R,6R)-2-(hydroxymethyl)-6-[2-[4-[2-[(2R,3 S,4R,5 S,6R)-3,4,5-trihydroxy-6-(hydroxymethyl)tetrahydropyran-2-yl]ethynyl]phenyl]ethynyl]tetrahydropyran-3,4,5-triol], the IC50 came out at 66 nM.
Consider `COCc1cc(C#C[C@H]2O[C@H](CO)[C@@H](O)[C@H](O)[C@@H]2O)ccc1C#C[C@H]1O[C@H](CO)[C@@H](O)[C@H](O)[C@@H]1O` [Compound 79, (2R,3S,4R,5S,6R)-2-(hydroxymethyl)-6-[2-[3-(methoxymethyl)-4-[2-[(2R,3S,4R,5S,6R)-3,4,5-trihydroxy-6-(hydroxymethyl)tetrahydropyran-2-yl]ethynyl]phenyl]ethynyl]tetrahydropyran-3,4,5-triol], for which the IC50 was 37 nM.
As for `CC1(Cn2c3cc(C#C[C@H]4O[C@H](CO)[C@@H](O)[C@H](O)[C@@H]4O)ccc3c3ccc(C#C[C@H]4O[C@H](CO)[C@@H](O)[C@H](O)[C@@H]4O)cc32)COC1` [Compound 186], the figure is 0.28 nM; as for `CN(C)C(=O)Cn1c2cc(C#C[C@H]3O[C@H](CO)[C@@H](O)[C@H](O)[C@@H]3O)ccc2c2ccc(C#C[C@H]3O[C@H](CO)[C@@H](O)[C@H](O)[C@@H]3O)cc21` [Compound 181, 2-[2,7-bis[2-[(2R,3S,4R,5S,6R)-3,4,5-trihydroxy-6-(hydroxymethyl)tetrahydropyran-2-yl]ethynyl]carbazol-9-yl]-N,N-dimethyl-acetamide], 10 nM; as for `OC[C@H]1O[C@H](C#Cc2ccc3c(c2)C(O)(CC2CCCC2)c2cc(C#C[C@H]4O[C@H](CO)[C@@H](O)[C@H](O)[C@@H]4O)ccc2-3)[C@@H](O)[C@@H](O)[C@@H]1O` (stereo partly drawn) [Compound 214, (2R,3S,4R,5S,6R)-2-[2-[9-(cyclopentylmethyl)-9-hydroxy-7-[2-[(2R,3S,4R,5S,6R)-3,4,5-trihydroxy-6-(hydroxymethyl)tetrahydropyran-2-yl]ethynyl]fluoren-2-yl]ethynyl]-6-(hydroxymethyl)tetrahydropyran-3,4,5-triol], 0.45 nM.
Next, `NC(=O)CCC(=O)c1c(C#C[C@H]2O[C@H](CO)[C@@H](O)[C@H](O)[C@@H]2O)ccc2c1C1(CCNCC1)c1cc(C#C[C@H]3O[C@H](CO)[C@@H](O)[C@H](O)[C@@H]3O)ccc1-2` [Compound 234, 4-[2,7-bis[2-[(2R,3S,4R,5S,6R)-3,4,5-trihydroxy-6-(hydroxymethyl)tetrahydropyran-2-yl]ethynyl]spiro[fluorene-9,4piperidine]-1yl]-4-oxo-butanamide]: 0.04 nM; `Cc1cc(N2CC(=O)N(c3ccc([C@H]4O[C@H](CO)[C@@H](O)[C@H](O)[C@@H]4O)c(C)c3)CC2=O)ccc1[C@H]1O[C@H](CO)[C@@H](O)[C@H](O)[C@@H]1O` [Compound 172, 1,4-bis[3-methyl-4-[(2R,3S,4R,5S,6R)-3,4,5-trihydroxy-6-(hydroxymethyl)tetrahydropyran-2-yl]phenyl]piperazine-2,5-dione]: 188 nM.
As for `OC[C@H]1O[C@H](C#Cc2cnc(C#C[C@H]3O[C@H](CO)[C@@H](O)[C@H](O)[C@@H]3O)cn2)[C@@H](O)[C@@H](O)[C@@H]1O` [Compound 135], the figure is 580 nM; as for `OC[C@H]1O[C@H](C#Cc2cc(C#C[C@H]3O[C@H](CO)[C@@H](O)[C@H](O)[C@@H]3O)c3[nH]ncc3c2)[C@@H](O)[C@@H](O)[C@@H]1O` [Compound 212, (2R,3S,4R,5S,6R)-2-(hydroxymethyl)-6-[2-[7-[2-[(2R,3S,4R,5S,6R)-3,4,5-trihydroxy-6-(hydroxymethyl)tetrahydropyran-2-yl]ethynyl]-1H-indazol-5-yl]ethynyl]tetrahydropyran-3,4,5-triol], 4.9 nM; as for `COc1cccc(C2(O)c3cc(C#C[C@H]4O[C@H](CO)[C@@H](O)[C@H](O)[C@@H]4O)ccc3-c3ccc(C#C[C@H]4O[C@H](CO)[C@@H](O)[C@H](O)[C@@H]4O)cc32)c1` [Compound 170, (2R,3S,4R,5S,6R)-2-[2-[9-hydroxy-9-(3-methoxyphenyl)-7-[2-[(2R,3S,4R,5S,6R)-3,4,5-trihydroxy-6-(hydroxymethyl)tetrahydropyran-2-yl]ethynyl]fluoren-2-yl]ethynyl]-6-(hydroxymethyl)tetrahydropyran-3,4,5-triol], 7.5 nM.
In the case of `O=C(CN1CCCC1=O)c1c(C#C[C@H]2O[C@H](CO)[C@@H](O)[C@H](O)[C@@H]2O)ccc2c1C1(CCNCC1)c1cc(C#C[C@H]3O[C@H](CO)[C@@H](O)[C@H](O)[C@@H]3O)ccc1-2` [Compound 241, 1-[2-[2,7-bis[2-[(2R,3S,4R,5S,6R)-3,4,5-trihydroxy-6-(hydroxymethyl)tetrahydropyran-2-yl]ethynyl]spiro[fluorene-9,4piperidine]-1yl]-2-oxo-ethyl]pyrrolidin-2-one], the IC50 is 0.03 nM.
As for `O=C(c1c(C#C[C@H]2O[C@H](CO)[C@@H](O)[C@H](O)[C@@H]2O)ccc2c1C1(CCNCC1)c1cc(C#C[C@H]3O[C@H](CO)[C@@H](O)[C@H](O)[C@@H]3O)ccc1-2)C1CCC1` [Compound 226, [2,7-bis[2-[(2R,3S,4R,5S,6R)-3,4,5-trihydroxy-6-(hydroxymethyl)tetrahydropyran-2-yl]ethynyl]spiro[fluorene-9,4piperidine]-1yl]-cyclobutyl-methanone], the figure is 0.06 nM.
